# Source: article PMC10376326, “Novel Acylselenourea Derivatives: Dual Molecules with Anticancer and Radical Scavenging Activity” (Antioxidants, 2023)
# Tests used:
# [1] = DPPH radical scavenging assay; assay type: biochemical
# In short: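 Acylselenoureas at 0.003 and 0.03 mg/mL (final dilutions from DMSO stock, via methanol) mixed with DPPH• prepared at 0.04 mg/mL in methanol. Absorbance decrease at 517 nm followed 0–120 min; % scavenging calculated relative to negative control, triplicates.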
# [2] = system: DU-145 cells; assay: Total ROS measurement (Muse Oxidative Stress Kit); assay type: cell-based, human; conditions: DU-145, 16 h; 1.I and 5.I 10 µM, H2O2 0.9 µM
# Method: Total ROS levels were measured in DU-145 cells treated with 1.I and 5.I using the Muse Oxidative Stress Kit (EMD Millipore, Billerica, MA, USA) according to the manufacturer’s protocol. This kit uses Muse oxidative stress reagent to detect ROS inside cells. This kit identifies two different cell populations: ROS(−) cells and ROS(+) cells. In the graph, the ROS(−) population is represented by the M1 peak and the ROS(+) cells by the M2 peak. DU-145 cells treated with H2O2 (0.9 µM) were used as positive controls to identify M1 and M2 peaks. Percentages of ROS(−) and ROS(+) cells were measured using the Muse Cell Analyzer.
Compound,"inhibition ([1]; 0.003 mg/mL, 0 min)","inhibition ([1]; 0.003 mg/mL, 5 min)","inhibition ([1]; 0.003 mg/mL, 15 min)","inhibition ([1]; 0.003 mg/mL, 30 min)","inhibition ([1]; 0.003 mg/mL, 60 min)","inhibition ([1]; 0.003 mg/mL, 90 min)","inhibition ([1]; 0.003 mg/mL, 120 min)",time to reach the highest DPPH inhibition ([1]; 0.03 mg/mL),"inhibition ([1]; 0.03 mg/mL, 0 min)","inhibition ([1]; 0.03 mg/mL, 5 min)","inhibition ([1]; 0.03 mg/mL, 15 min)","inhibition ([1]; 0.03 mg/mL, 30 min)","inhibition ([1]; 0.03 mg/mL, 60 min)","inhibition ([1]; 0.03 mg/mL, 90 min)","inhibition ([1]; 0.03 mg/mL, 120 min)",ROS PROFILE M2 (ROS(+) cells) [2]
"CCCNC(=[Se])NC(=O)c1ccco1 [Compound 1.I, N-(propylcarbamoselenoyl)furan-2-carboxamide]",0%,1.1 ± 2%,3.5 ± 2%,6.6 ± 2%,11.7 ± 2.3%,15.5 ± 2.5%,17.5 ± 2.3%,60 min,1.8 ± 1.5%,10.3 ± 4.3%,29.7 ± 4.1%,55.4 ± 5.1%,95.4 ± 4.1%,96.5 ± 0.7%,96.4 ± 0.6%,
"CCCNC(=[Se])NC(=O)c1ccccc1 [Compound 5.I, N-(propylcarbamoselenoyl)benzamide]",1.7 ± 1.1%,2.9 ± 1.1%,4.6 ± 1.2%,6.4 ± 1.3%,9.3 ± 1.4%,11.4 ± 1.5%,13 ± 1.6%,,3.2 ± 2.4%,16.6 ± 3.1%,29.8 ± 3.4%,46.1 ± 3.9%,72.6 ± 6.2%,97.7 ± 0.6%,96.7 ± 2.5%,~13%
